As usually defined, the IC50 is the concentration at which inhibition is half-maximal. Read a high IC50 as lower potency. As a reminder, the EC50 is the concentration needed to bring the measured effect to its halfway point. The bioavailability is the share of a dose that reaches the circulation, judged against a reference dose that is usually intravenous. As usually defined, the half-life is the time in which the quantity being followed falls by half. Read a low half-life as fast loss. The CL/F is clearance divided by bioavailability, as obtained after extravascular dosing. As usually defined, the Kp is tissue or fluid exposure divided by exposure in the circulation. As a reminder, the Cmax is the maximum level reached in the sampled fluid or tissue.

The target of data set [1] is T1, RNA-directed RNA polymerase (Hepacivirus hominis, UniProt O39930). Put plainly: Inhibition of HCV 1a NS5B RNA polymerase. On the set-up: species or system Hepatitis C virus subtype 1a.
T1 sequence (O39930 whole entry): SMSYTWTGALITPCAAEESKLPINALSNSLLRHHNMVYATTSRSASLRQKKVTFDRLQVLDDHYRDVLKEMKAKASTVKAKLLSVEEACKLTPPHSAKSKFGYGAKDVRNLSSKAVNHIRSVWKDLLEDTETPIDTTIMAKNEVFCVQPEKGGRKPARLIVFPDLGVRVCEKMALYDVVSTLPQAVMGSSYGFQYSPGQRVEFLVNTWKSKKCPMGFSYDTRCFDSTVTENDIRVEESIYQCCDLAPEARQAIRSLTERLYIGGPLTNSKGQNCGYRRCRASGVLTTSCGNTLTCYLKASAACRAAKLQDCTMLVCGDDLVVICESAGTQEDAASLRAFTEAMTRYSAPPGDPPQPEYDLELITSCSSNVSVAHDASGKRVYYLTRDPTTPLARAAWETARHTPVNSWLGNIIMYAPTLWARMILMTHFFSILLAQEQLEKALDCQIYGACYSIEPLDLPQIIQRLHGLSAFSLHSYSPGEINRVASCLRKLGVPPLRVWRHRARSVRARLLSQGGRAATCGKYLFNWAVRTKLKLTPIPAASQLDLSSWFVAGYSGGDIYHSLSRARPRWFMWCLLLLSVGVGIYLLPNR
Data set [2] has as its target T1, RNA-directed RNA polymerase. Kind of data set: Inhibition of HCV 1b NS5B RNA polymerase. Also on record: species or system Hepatitis C virus subtype 1b.
Data set [3] relates to Hepatitis C virus. Put plainly: Inhibition of HCV 1b replication in presence of 5% fetal calf serum. Format: functional, organism-based, Hepatitis C virus subtype 1b.
Data set [4] in a line: Protein binding in plasma. Particulars: read-out: PPB. It counts as ADME, cell-free.
The subject of data set [5] is Hepatitis C virus. Kind of data set: Inhibition of HCV 1b replication in presence of 40% human serum. It counts as functional, organism-based, Hepatitis C virus subtype 1b.
The nature of data set [6]: Bioavailability in rat at 5 mg/kg, po. As to conditions: in vivo. It counts as ADME, organism-based.
A short description of data set [7]: Half life in rat at 5 mg/kg, po. Format: ADME, organism-based. Particulars: in vivo. Also on record: dose 5 mg/kg, route oral.
The nature of data set [8]: Clearance in rat at 5 mg/kg, po. Format: ADME, organism-based. Also on record: dose 5 mg/kg, route oral. Particulars: in vivo.
A short description of data set [9]: Ratio of drug level in liver to plasma in rat after 8 hrs. Format: ADME, organism-based.
Data set [10] is described as follows: Cmax in rat at 5 mg/kg, po. As to conditions: in vivo. On the set-up: dose 5 mg/kg, route oral. Format: ADME, organism-based.

In data set [1], `O=c1c(C2=NS(=O)(=O)c3ccccc3N2)c(O)c2cccnc2n1Cc1ccccc1` showed a concentration for half-maximal inhibition (IC50) of 5800 nM. This lies in the single-digit micromolar range.

For the molecule `CC(C)CCn1c(=O)c(C2=NS(=O)(=O)c3ccccc3N2)c(O)c2cccnc21`, the IC50 in data set [2] was 41 nM; in data set [1], 810 nM.

For the molecule `CC(C)CCn1c(=O)c(C2=NS(=O)(=O)c3cc(OCC(=O)N(C)C)ccc3N2)c(O)c2cccnc21`, the IC50 in [2] stood at 70 nM; in [1] it was 934 nM.

As for `CC(C)CCn1c(=O)c(C2=Nc3ccc(NCC#N)cc3S(=O)(=O)N2)c(O)c2cccnc21`, the IC50 in data set [2] was 24 nM; in [1], 120 nM.

In data set [2], `CC(C)CCn1c(=O)c(C2=Nc3ccc(OCc4ccccc4)cc3S(=O)(=O)N2)c(O)c2cccnc21` came in with an IC50 of 1490 nM.

For the molecule `CC(C)CCn1c(=O)c(C2=NS(=O)(=O)c3cc(NS(C)(=O)=O)ccc3N2)c(O)c2cccnc21`, the EC50 in the data set with Hepatitis C virus [3] came out at 3 nM; with Hepatitis C virus [5], 1310 nM. In data set [4], the fraction unbound is under 0.01. The molecule also returned an IC50 in data set [1] of 2 nM.

With `CC(C)CCn1c(=O)c(C2=NS(=O)(=O)c3cc(NS(=O)(=O)C(C)C)ccc3N2)c(O)c2cccnc21`, the results for the IC50 in data set [2] and in data set [1] were 3 nM and 8 nM, respectively. Besides, the EC50 in the data set on Hepatitis C virus [3] was 110 nM.

In the case of `CC(C)CCn1c(=O)c(C2=Nc3ccc(NS(=O)(=O)c4ccccc4)cc3S(=O)(=O)N2)c(O)c2cccnc21`, the IC50 is 7 nM in data set [2] and 41 nM in data set [1]. Further, the EC50 in the data set with Hepatitis C virus [3] stood at 1690 nM.

Take `COc1ccc2c(c1)S(=O)(=O)NC(c1c(O)c3cccnc3n(Cc3ccccc3)c1=O)=N2`: the values for the IC50 in data set [2] and in data set [1] were 76 nM and 8310 nM, respectively.

With `O=c1c(C2=NS(=O)(=O)c3cccc(O)c3N2)c(O)c2cccnc2n1Cc1ccccc1`, the IC50 came to 54 nM in data set [2] and 8370 nM in data set [1].

The molecule `O=c1c(C2=NS(=O)(=O)c3ccc(O)cc3N2)c(O)c2cccnc2n1Cc1ccccc1` displayed an IC50 in data set [2] of 2510 nM.

For `CC(C)CCn1c(=O)c(C2=Nc3ccc(OCC(N)=O)cc3S(=O)(=O)N2)c(O)c2cccnc21`, the bioavailability in data set [6] was 35%. The molecule also had a half-life in [7] of 2 h. The CL/F in data set [8] was 12.3 mL/min/kg. Besides, the IC50 in data set [2] worked out at 16 nM; in data set [1], 46 nM. In addition, the values for the EC50 in the data set on Hepatitis C virus [3] and in the data set with Hepatitis C virus [5] were 78 nM and 2740 nM, respectively. Further, in [4], the fraction unbound is under 0.01. Also, in data set [9], the Kp at 8 h worked out at 54. This molecule came in with a Cmax in [10] of 180 nM.

Turning to `Cc1ccc2c(c1)S(=O)(=O)NC(c1c(O)c3cccnc3n(Cc3ccccc3)c1=O)=N2`, the IC50 came out at 230 nM in [2] and 25700 nM in [1].

Consider `CCCCS(=O)(=O)Nc1ccc2c(c1)S(=O)(=O)NC(c1c(O)c3cccnc3n(CCC(C)C)c1=O)=N2`, for which the figures for the IC50 in data set [2] and in data set [1] were 5 nM and 22 nM, respectively. In addition, in the data set with Hepatitis C virus [3], the EC50 is 1000 nM.

With `CC(C)CCn1c(=O)c(C2=NS(=O)(=O)c3cc(OCC(=O)O)ccc3N2)c(O)c2cccnc21`, the 50% inhibitory concentration (IC50) in [2] is 57 nM; in data set [1], 367 nM.

As for `O=c1c(C2=NS(=O)(=O)c3cccc(Br)c3N2)c(O)c2cccnc2n1Cc1ccccc1`, the figures for the IC50 in data set [2] and in data set [1] were 1170 nM and 6200 nM, respectively.

As to `COc1ccc2c(c1)N=C(c1c(O)c3cccnc3n(Cc3ccccc3)c1=O)NS2(=O)=O`, the 50% inhibitory concentration (IC50) in [2] was 3900 nM.

For `CC(C)CCn1c(=O)c(C2=Nc3ccc(N)cc3S(=O)(=O)N2)c(O)c2cccnc21`, the values for the IC50 in data set [2] and in [1] were 23 nM and 310 nM, respectively. Besides, in the data set with Hepatitis C virus [3], the concentration for a half-maximal effect (EC50) is 480 nM.

With `CCCOc1ccc2c(c1)S(=O)(=O)NC(c1c(O)c3cccnc3n(CCC(C)C)c1=O)=N2`, the IC50 in data set [2] turned out to be 930 nM; in data set [1], 1620 nM.

With `CC(C)CCn1c(=O)c(C2=Nc3ccc(OCC(=O)OC(C)(C)C)cc3S(=O)(=O)N2)c(O)c2cccnc21`, the IC50 in [2] turned out to be 850 nM; in data set [1], 5000 nM.

Turning to `COc1cccc2c1NC(c1c(O)c3cccnc3n(Cc3ccccc3)c1=O)=NS2(=O)=O`, the IC50 in [2] turned out to be 2120 nM; in data set [1], 18000 nM.

Turning to `COc1cccc2c1N=C(c1c(O)c3cccnc3n(CCC(C)C)c1=O)NS2(=O)=O`, the concentration for half-maximal inhibition (IC50) in [2] is 1170 nM; in [1], 17600 nM.

For `COc1ccc2c(c1)S(=O)(=O)N=C(c1c(O)c3cccnc3n(CCC(C)C)c1=O)N2`, the IC50 in [2] worked out at 65 nM; in data set [1], 1130 nM.

`O=c1c(C2=Nc3ccc(Br)cc3S(=O)(=O)N2)c(O)c2cccnc2n1Cc1ccccc1`: the values for the IC50 in data set [2] and in data set [1] were 756 nM and 16800 nM, respectively.

On to `CC(C)CCn1c(=O)c(C2=NS(=O)(=O)c3cc(NC(=O)C(F)(F)F)ccc3N2)c(O)c2cccnc21`, for which the figures for the IC50 in data set [2] and in data set [1] were 70 nM and 906 nM, respectively.

On to `CC(C)CCn1c(=O)c(C2=NS(=O)(=O)c3cc(O)ccc3N2)c(O)c2cccnc21`, for which the values for the IC50 in data set [2] and in data set [1] were 42 nM and 390 nM, respectively.

As for `CC(C)CCn1c(=O)c(C2=NS(=O)(=O)c3cc(OCC#N)ccc3N2)c(O)c2cccnc21`, the IC50 in data set [2] came to 25 nM; in data set [1], 141 nM.

As for `Cc1cccc2c1N=C(c1c(O)c3cccnc3n(Cc3ccccc3)c1=O)NS2(=O)=O`, the 50% inhibitory concentration (IC50) is 96 nM in [2] and 6700 nM in data set [1].

Regarding `CC(C)CCn1c(=O)c(C2=Nc3ccc(NCC(N)=O)cc3S(=O)(=O)N2)c(O)c2cccnc21`, the IC50 in data set [2] came out at 34 nM; in [1] it was 470 nM. Besides, in the data set on Hepatitis C virus [3], the concentration giving a half-maximal response (EC50) came out at 450 nM.

On to `CNC(=O)COc1ccc2c(c1)S(=O)(=O)NC(c1c(O)c3cccnc3n(CCC(C)C)c1=O)=N2`, for which the IC50 is 80 nM in [2] and 180 nM in data set [1].

Consider `CC(C)CCn1c(=O)c(C2=Nc3ccc(OCCN)cc3S(=O)(=O)N2)c(O)c2cccnc21`, for which the figures for the IC50 in data set [2] and in data set [1] were 51 nM and 637 nM, respectively.

The record behind these values is ChEMBL document CHEMBL1138030, “Inhibitors of HCV NS5B polymerase: synthesis and structure-activity relationships of N-1-benzyl and N-1-[3-methylbutyl]-4-hydroxy-1,8-naphthyridon-3-yl benzothiadiazine analogs containing substituents on the aromatic ring” (Bioorg Med Chem Lett, 2006).
